According to paper PMC8086144, “A novel peptide antagonist of the human growth hormone receptor” (The Journal of Biological Chemistry, 2021):

Tests used:
[1] = molecular target: T1, hGHR (Homo sapiens, UniProt P10912); assay: hGH-mediated pSTAT5 in IM9 cells, Western blot; type: cell-based; conditions: 200 nM S1H with 2.5 nM hGH, 20 min, Western blot densitometry, n = 3
T1 construct: previously reported to express high levels of endogenous hGHR; host or cells: SK-MEL-28, MALME-3M, IM9
T1 sequence (P10912 19-638): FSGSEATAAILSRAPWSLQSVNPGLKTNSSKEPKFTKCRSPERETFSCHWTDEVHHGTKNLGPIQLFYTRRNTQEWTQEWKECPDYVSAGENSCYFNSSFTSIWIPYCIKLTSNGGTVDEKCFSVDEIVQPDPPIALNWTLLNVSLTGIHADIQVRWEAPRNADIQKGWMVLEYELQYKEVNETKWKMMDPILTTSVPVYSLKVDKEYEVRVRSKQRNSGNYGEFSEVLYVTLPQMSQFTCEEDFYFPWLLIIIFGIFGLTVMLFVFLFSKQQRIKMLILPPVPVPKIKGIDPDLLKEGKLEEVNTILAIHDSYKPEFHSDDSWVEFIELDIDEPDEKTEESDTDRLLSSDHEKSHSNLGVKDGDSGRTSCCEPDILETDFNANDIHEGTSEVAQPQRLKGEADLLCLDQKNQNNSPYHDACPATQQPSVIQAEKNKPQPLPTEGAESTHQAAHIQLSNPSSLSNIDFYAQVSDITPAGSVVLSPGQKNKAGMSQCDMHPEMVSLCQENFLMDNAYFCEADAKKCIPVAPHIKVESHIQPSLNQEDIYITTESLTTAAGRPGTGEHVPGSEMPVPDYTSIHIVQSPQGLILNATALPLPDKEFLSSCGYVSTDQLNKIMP
Experimental: (§1) SK-MEL-28, MALME-3M, and T84 cells were grown and maintained in Eagle's Minimal Essential Medium. IM9 and L cells were grown in RPMI-1640 media and Dulbecco's modified Eagle's medium, respectively. All growth media was supplemented with 10% fetal bovine serum and 1× antibiotic-antimycotic […] solution. Cells were grown at 37 °C under a 5% CO2 atmosphere in a humidified incubator, and growth media was replaced every 48 h during incubation. No hGH was present in or added to the growth media unless specifically indicated. […]
(§2) Following treatment, the cells were harvested at the indicated time points, and the total protein was extracted. […] Sample protein concentration was quantified using a Bradford assay with bovine serum albumin as the protein standard. Absorbance at 595 nm was measured using a Spectramax 250 multimode plate reader (Molecular Devices) and processed using SoftmaxPro v4.7.1 software.
(§3) Cytosolic fractions from treated cells were thawed on ice, and 80 μg protein was loaded onto polyacrylamide gels for separation by SDS-PAGE. […] Chemiluminescence signals were detected using a GelDoc (BioRad) fluorescence imager. […] Percent inhibition was then measured by subtracting the pSTAT5 band intensity in each lane from the pSTAT5 band intensity of hGH-treated samples. […]

[2] = molecular target: T1, hGHR; assay: hGH-mediated pSTAT5 in SK-MEL-28 cells, Western blot; type: cell-based; conditions: 20 min, Western blot densitometry, n = 3
Experimental: as §1, §2, §3

suppression of hGH-mediated pSTAT5 [1]: 67%
suppression of hGH-mediated pSTAT5 ([2]; 100 nM S1H with 2.5 nM hGH): 46%
suppression of hGH-mediated pSTAT5 ([2]; 200 nM S1H with 2.5 nM hGH): 67%
Compound: CC[C@H](C)[C@H](NC(=O)[C@H](Cc1ccc(O)cc1)NC(C)=O)C(=O)N1CCC[C@H]1C(=O)N[C@@H](CCCCN)C(=O)N[C@@H](CCC(=O)O)C(=O)N[C@@H](CCC(N)=O)C(=O)N[C@@H](CCCCN)C(=O)N[C@@H](Cc1ccc(O)cc1)C(=O)N[C@@H](CO)C(=O)N[C@@H](Cc1ccccc1)C(=O)N[C@@H](CC(C)C)C(=O)N[C@@H](CCC(N)=O)C(=O)N[C@@H](CC(N)=O)C(=O)N1CCC[C@H]1C(=O)N[C@@H](CCC(N)=O)C(=O)N[C@H](C(N)=O)[C@@H](C)O [S1H]
